Consider 68 sequences from the supplement of paper PMC11208160.
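Further: IS621 bridge recombinase in Escherichia coli cells against a fixed T5 target plasmid.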

The nature of the data set: recombinant UMI read abundance after kanamycin selection (control-corrected) (log10(CPM+1)); higher = more efficient recombination; extreme values may be limits of the assay; sequences stand for … in AGTGCAGAGAAAATCGGCCAGTTTTCTCTGCCTGCAGTCCGCATGCCGTGGGACCCCTTGGGTTCTAACCTGTTGCCTAGATTTATGCAGCGGACTGCCTTTCTCCCAAAGTGATAAACCGG…AGGTTGGTTTCACT; site = the 11-nt donor. In a few lines: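 Values, expressed as log10(CPM+1), derive from recombinant UMI counts converted to CPM, averaged across replicates and scaled by control-derived factors. Plating was with IPTG (0.07 mM) plus kanamycin or unselected, two replicates each. The screen pooled donor and donor-binding-loop pairs for the IS621 bridge recombinase in Escherichia coli.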
“GATCATCCATGGACCGGTTTTCCCGGTAATCCGTATTTGCT (site GATCATCCTAG)”: the “recombinant UMI read abundance (log10)” value was 0.452.
Then “GATCATCCATGGACCGGTTTTCCCGGTAATCCGTATTTGCT (site GATGATCCTAG)”, with 0; and “GATCATCCATGGACCGGTTTTCCCGGTAATCCGTATTTGCT (site GATTATCCTAG)”, with 0.
To “GATCCAACATGGACCGGTTTTCCCGGTAATCCGTATTTGTA (site GATCCAACTTA)” belongs 0.0155; to “GATCCAACATGGACCGGTTTTCCCGGTAATCCGTATTTGTA (site GCTCCAACTTA)”, 0.00727.
For “GATCCAACATGGACCGGTTTTCCCGGTAATCCGTATTTGTA (site GGTCCAACTTA)”, the “recombinant UMI read abundance (log10)” value worked out at 0.021.
“GATCCAACATGGACCGGTTTTCCCGGTAATCCGTATTTGTA (site GTTCCAACTTA)”: the “recombinant UMI read abundance (log10)” value amounted to 0.0286.
Then “GATCCGTCATGGACCGGTTTTCCCGGTAATCCGTATTTGTA (site GATCCGTCTTA)”, with 1.26; and “GATCGCTCATGGACCGGTTTTCCCGGTAATCCGTATTTGTT (site GATCGCTCTAA)”, with 0.523; and “GATCTGCCATGGACCGGTTTTCCCGGTAATCCGTATTTGAA (site GATCTGCCTTT)”, with 0.00302.
Then “GATGAAACATGGACCGGTTTTCCCGGTAATCCGTATTTGCC (site GATGAAACTGG)”, with 1.72; and “GATGGGACATGGACCGGTTTTCCCGGTAATCCGTATTTGAC (site GATAGGACTGT)”, with 1.69.
With “GATGGGACATGGACCGGTTTTCCCGGTAATCCGTATTTGAC (site GATCGGACTGT)”, the “recombinant UMI read abundance (log10)” value turned out to be 0.285.
To “GATGGGACATGGACCGGTTTTCCCGGTAATCCGTATTTGAC (site GATGGGACTGT)” belongs 2.75.
To “GATGGGACATGGACCGGTTTTCCCGGTAATCCGTATTTGAC (site GATTGGACTGT)” belongs 0; to “GATGTAACATGGACCGGTTTTCCCGGTAATCCGTATTTGCT (site AATGTAACTAG)”, 1.24.
Then “GATGTAACATGGACCGGTTTTCCCGGTAATCCGTATTTGCT (site CATGTAACTAG)”, with 1.31.
For “GATGTAACATGGACCGGTTTTCCCGGTAATCCGTATTTGCT (site GATGTAACTAG)”, the “recombinant UMI read abundance (log10)” value was 1.83.
Take “GATGTAACATGGACCGGTTTTCCCGGTAATCCGTATTTGCT (site TATGTAACTAG)”: the “recombinant UMI read abundance (log10)” value worked out at 1.83.
Then “GATGTATCATGGACCGGTTTTCCCGGTAATCCGTATTTGCA (site GATGTATCTTG)”, with 2.3.
Then “GATGTTCCATGGACCGGTTTTCCCGGTAATCCGTATTTGGT (site GATGTTCCTAC)”, with 0.0188.
Then “GATGTTCCATGGACCGGTTTTCCCGGTAATCCGTATTTGGT (site GCTGTTCCTAC)”, with 0.00282; and “GATGTTCCATGGACCGGTTTTCCCGGTAATCCGTATTTGGT (site GGTGTTCCTAC)”, with 0.
In the case of “GATGTTCCATGGACCGGTTTTCCCGGTAATCCGTATTTGGT (site GTTGTTCCTAC)”, the “recombinant UMI read abundance (log10)” value came out at 0.00388.
As for “GATTAGACATGGACCGGTTTTCCCGGTAATCCGTATTTGCT (site TTGCTCCCTGT)”, the “recombinant UMI read abundance (log10)” value came out at 0.
Then “GATTATCCATGGACCGGTTTTCCCGGTAATCCGTATTTGAT (site GATTATCCTAA)”, with 0.0183.
Then “GATTATCCATGGACCGGTTTTCCCGGTAATCCGTATTTGAT (site GATTATCCTAC)”, with 0.0054.
Then “GATTATCCATGGACCGGTTTTCCCGGTAATCCGTATTTGAT (site GATTATCCTAG)”, with 0.
“GATTATCCATGGACCGGTTTTCCCGGTAATCCGTATTTGAT (site GATTATCCTAT)”: the “recombinant UMI read abundance (log10)” value was found to be 0.
To “GATTATCCATGGACCGGTTTTCCCGGTAATCCGTATTTGGT (site GATTATCCTAA)” belongs 0.017; to “GATTATCCATGGACCGGTTTTCCCGGTAATCCGTATTTGGT (site GATTATCCTAC)”, 0.0163; to “GATTATCCATGGACCGGTTTTCCCGGTAATCCGTATTTGGT (site GATTATCCTAG)”, 0.
In the case of “GATTATCCATGGACCGGTTTTCCCGGTAATCCGTATTTGGT (site GATTATCCTAT)”, the “recombinant UMI read abundance (log10)” value turned out to be 0.
Then “GATTATCCATGGACCGGTTTTCCCGGTAATCCGTATTTGTT (site GATTATCCTAA)”, with 0.00783; and “GATTATCCATGGACCGGTTTTCCCGGTAATCCGTATTTGTT (site GATTATCCTAC)”, with 0; and “GATTATCCATGGACCGGTTTTCCCGGTAATCCGTATTTGTT (site GATTATCCTAG)”, with 0.
To “GATTATCCATGGACCGGTTTTCCCGGTAATCCGTATTTGTT (site GATTATCCTAT)” belongs 0; to “GATTGAACATGGACCGGTTTTCCCGGTAATCCGTATTTGAC (site GATTGAACTGT)”, 0.
For the sequence “GATTGAACATGGACCGGTTTTCCCGGTAATCCGTATTTGAC (site GATTGCACTGT)”, the “recombinant UMI read abundance (log10)” value was determined as 0.00522.
Then “GATTGAACATGGACCGGTTTTCCCGGTAATCCGTATTTGAC (site GATTGGACTGT)”, with 0.339; and “GATTGAACATGGACCGGTTTTCCCGGTAATCCGTATTTGAC (site GATTGTACTGT)”, with 0.
To “GATTGTACATGGACCGGTTTTCCCGGTAATCCGTATTTGCG (site GATTGTACTCG)” belongs 0.619; to “GATTGTACATGGACCGGTTTTCCCGGTAATCCGTATTTGGG (site GATTGTACTCC)”, 0.0205; to “GATTGTCCATGGACCGGTTTTCCCGGTAATCCGTATTTGAT (site GATTGTCCTAT)”, 1.17.
Then “GATTTTCCATGGACCGGTTTTCCCGGTAATCCGTATTTGCT (site GATTATCCTAG)”, with 0; and “GATTTTCCATGGACCGGTTTTCCCGGTAATCCGTATTTGCT (site GATTCTCCTAG)”, with 0; and “GATTTTCCATGGACCGGTTTTCCCGGTAATCCGTATTTGCT (site GATTGTCCTAG)”, with 0.014.
Take “GATTTTCCATGGACCGGTTTTCCCGGTAATCCGTATTTGCT (site GATTTTCCTAG)”: the “recombinant UMI read abundance (log10)” value amounted to 0.
Then “GCAAAGCCATGGACCGGTTTTCCCGGTAATCCGTATTTGGG (site GCAAAGCCTCC)”, with 0.00379; and “GCAAAGCCATGGACCGGTTTTCCCGGTAATCCGTATTTGGG (site GCCAAGCCTCC)”, with 0.00875.
To “GCAAAGCCATGGACCGGTTTTCCCGGTAATCCGTATTTGGG (site GCGAAGCCTCC)” belongs 0.00619; to “GCAAAGCCATGGACCGGTTTTCCCGGTAATCCGTATTTGGG (site GCTAAGCCTCC)”, 0.0133.
For “GCAACATCATGGACCGGTTTTCCCGGTAATCCGTATTTGCC (site GCAACATCTGG)”, the “recombinant UMI read abundance (log10)” value is 0.611.
On to “GCAAGAACATGGACCGGTTTTCCCGGTAATCCGTATTTGAG (site GCAAGAACTCT)”, for which the “recombinant UMI read abundance (log10)” value was 2.56.
To “GCAATAACATGGACCGGTTTTCCCGGTAATCCGTATTTGGT (site GCAATAACTAC)” belongs 2.38; to “GCAATCGCATGGACCGGTTTTCCCGGTAATCCGTATTTGAG (site GCAATCGCTCT)”, 2.29.
To “GCACAGCCATGGACCGGTTTTCCCGGTAATCCGTATTTGTT (site GCACAGCCTAA)” belongs 1.47.
Then “GCACCAACATGGACCGGTTTTCCCGGTAATCCGTATTTGCC (site GCACCAACTGG)”, with 0.762; and “GCACCGACATGGACCGGTTTTCCCGGTAATCCGTATTTGAA (site GCACCGACTTT)”, with 0.965.
Regarding “GCACGAACATGGACCGGTTTTCCCGGTAATCCGTATTTGTC (site ACACGAACTGA)”, the “recombinant UMI read abundance (log10)” value amounted to 1.48.
To “GCACGAACATGGACCGGTTTTCCCGGTAATCCGTATTTGTC (site CCACGAACTGA)” belongs 2.19.
To “GCACGAACATGGACCGGTTTTCCCGGTAATCCGTATTTGTC (site GCACGAACTGA)” belongs 2.56.
Regarding “GCACGAACATGGACCGGTTTTCCCGGTAATCCGTATTTGTC (site TCACGAACTGA)”, the “recombinant UMI read abundance (log10)” value was determined as 0.552.
For “GCACGTGCATGGACCGGTTTTCCCGGTAATCCGTATTTGGC (site GCACGTGCTGC)”, the “recombinant UMI read abundance (log10)” value stood at 2.23.
Then “GCACTCTCATGGACCGGTTTTCCCGGTAATCCGTATTTGGG (site GCACTCTCTCC)”, with 0.647; and “GCAGAGTCATGGACCGGTTTTCCCGGTAATCCGTATTTGTA (site GCAGAGTCTTA)”, with 3.17.
Turning to “GCAGATCCATGGACCGGTTTTCCCGGTAATCCGTATTTGTC (site GCAGATCCTGA)”, the “recombinant UMI read abundance (log10)” value turned out to be 0.
To “GCAGCGTCATGGACCGGTTTTCCCGGTAATCCGTATTTGGA (site GCAGCGTCTTC)” belongs 2.37.
